Data published in PubChem BioAssay (NCI).
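Dose response: 5 concentrations. Exposure: 48 h. Format: 96-well plates. Endpoint: linear interpolation; highest concentration if not reached. TGI: total growth inhibition.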

Legend:
Test in all cases: inhibition of tumour cell growth, NCI panel, 48 h
KM12 colon = test system: KM12 colon
HCC-2998 colon = test system: HCC-2998 colon
OVCAR-8 ovarian = test system: OVCAR-8 ovarian
786-0 renal = test system: 786-0 renal
M14 melanoma = test system: M14 melanoma
K-562 leukemia = test system: K-562 leukemia
DMS 273 small cell lung = test system: DMS 273 small cell lung
SN12C renal = test system: SN12C renal
OVCAR-5 ovarian = test system: OVCAR-5 ovarian
MOLT-4 leukemia = test system: MOLT-4 leukemia
M19-MEL melanoma = test system: M19-MEL melanoma
SR leukemia = test system: SR leukemia
TK-10 renal = test system: TK-10 renal
OVCAR-3 ovarian = test system: OVCAR-3 ovarian
RXF 393 renal = test system: RXF 393 renal
HCT-116 colon = test system: HCT-116 colon
SF-268 CNS = test system: SF-268 CNS
SNB-78 CNS = test system: SNB-78 CNS
HCT-15 colon = test system: HCT-15 colon
HOP-18 NSCLC = test system: HOP-18 NSCLC
SK-MEL-2 melanoma = test system: SK-MEL-2 melanoma
SNB-75 CNS = test system: SNB-75 CNS
RPMI-8226 leukemia = test system: RPMI-8226 leukemia
DMS 114 small cell lung = test system: DMS 114 small cell lung
HOP-92 NSCLC = test system: HOP-92 NSCLC
NCI-H226 lung = test system: NCI-H226 lung
UO-31 renal = test system: UO-31 renal
NCI-H522 lung = test system: NCI-H522 lung
NCI-H23 lung = test system: NCI-H23 lung
COLO 205 colon = test system: COLO 205 colon
CAKI-1 renal = test system: CAKI-1 renal
HL-60(TB) leukemia = test system: HL-60(TB) leukemia
IGROV1 ovarian = test system: IGROV1 ovarian
SNB-19 CNS = test system: SNB-19 CNS
KM20L2 colon = test system: KM20L2 colon
UACC-257 melanoma = test system: UACC-257 melanoma
SF-295 CNS = test system: SF-295 CNS
MALME-3M melanoma = test system: MALME-3M melanoma
A498 renal = test system: A498 renal
SK-MEL-28 melanoma = test system: SK-MEL-28 melanoma
DLD-1 colon = test system: DLD-1 colon
CCRF-CEM leukemia = test system: CCRF-CEM leukemia
OVCAR-4 ovarian = test system: OVCAR-4 ovarian
HT29 colon = test system: HT29 colon
SF-539 CNS = test system: SF-539 CNS
LOX IMVI melanoma = test system: LOX IMVI melanoma
LXFL 529 NSCLC = test system: LXFL 529 NSCLC
UACC-62 melanoma = test system: UACC-62 melanoma
ACHN renal = test system: ACHN renal
SW-620 colon = test system: SW-620 colon
NCI-H460 lung = test system: NCI-H460 lung
A549 NSCLC = test system: A549 NSCLC
HOP-62 NSCLC = test system: HOP-62 NSCLC
U251 CNS = test system: U251 CNS
SK-MEL-5 melanoma = test system: SK-MEL-5 melanoma
XF 498 CNS = test system: XF 498 CNS
EKVX NSCLC = test system: EKVX NSCLC

For `COC(=O)C(=O)C(C(C)=O)C(=O)NCc1ccccc1` (configuration not stated), the TGI (KM12 colon) was > 100 µM, the TGI (HCC-2998 colon) was > 100 µM and the TGI (OVCAR-8 ovarian) was > 100 µM. For the same compound, the TGI (786-0 renal) was > 100 µM, the TGI (M14 melanoma) was > 100 µM and the TGI (K-562 leukemia) was > 100 µM. For the same compound, the TGI (DMS 273 small cell lung) was > 100 µM, the TGI (SN12C renal) was > 100 µM and the TGI (OVCAR-5 ovarian) was > 100 µM. For the same compound, the TGI (MOLT-4 leukemia) was > 100 µM, the TGI (M19-MEL melanoma) was > 100 µM and the TGI (SR leukemia) was > 100 µM. For the same compound, the TGI (TK-10 renal) was > 100 µM, the TGI (OVCAR-3 ovarian) was > 100 µM and the TGI (RXF 393 renal) was > 100 µM. The TGI (HCT-116 colon) was > 100 µM, the TGI (SF-268 CNS) was > 100 µM and the TGI (SNB-78 CNS) was > 100 µM. For the same compound, the TGI (HCT-15 colon) was > 100 µM, the TGI (HOP-18 NSCLC) was > 100 µM and the TGI (SK-MEL-2 melanoma) was > 100 µM. The TGI (SNB-75 CNS) was > 100 µM, the TGI (RPMI-8226 leukemia) was > 100 µM and the TGI (DMS 114 small cell lung) was > 100 µM. The TGI (HOP-92 NSCLC) was > 100 µM, the TGI (NCI-H226 lung) was > 100 µM and the TGI (UO-31 renal) was > 100 µM. For the same compound, the TGI (NCI-H522 lung) was > 100 µM, the TGI (NCI-H23 lung) was > 100 µM and the TGI (COLO 205 colon) was > 100 µM. For the same compound, the TGI (CAKI-1 renal) was > 100 µM, the TGI (HL-60(TB) leukemia) was > 100 µM and the TGI (IGROV1 ovarian) was > 100 µM. The TGI (SNB-19 CNS) was > 100 µM, the TGI (KM20L2 colon) was > 100 µM and the TGI (UACC-257 melanoma) was > 100 µM. For the same compound, the TGI (SF-295 CNS) was > 100 µM, the TGI (MALME-3M melanoma) was > 100 µM and the TGI (A498 renal) was > 100 µM. For the same compound, the TGI (SK-MEL-28 melanoma) was > 100 µM, the TGI (DLD-1 colon) was > 100 µM and the TGI (CCRF-CEM leukemia) was > 100 µM. For the same compound, the TGI (OVCAR-4 ovarian) was > 100 µM, the TGI (HT29 colon) was > 100 µM and the TGI (SF-539 CNS) was > 100 µM. For the same compound, the TGI (LOX IMVI melanoma) was > 100 µM, the TGI (LXFL 529 NSCLC) was > 100 µM and the TGI (UACC-62 melanoma) was > 100 µM. The TGI (ACHN renal) was > 100 µM, the TGI (SW-620 colon) was 19 µM and the TGI (NCI-H460 lung) was > 100 µM. The TGI (A549 NSCLC) was > 100 µM, the TGI (HOP-62 NSCLC) was > 100 µM and the TGI (U251 CNS) was > 100 µM. The TGI (SK-MEL-5 melanoma) was > 100 µM, the TGI (XF 498 CNS) was > 100 µM and the TGI (EKVX NSCLC) was > 100 µM.
